One block for each compound: values may come before it. Residues, ends and D or L forms follow the SMILES beside them. *: point of attachment. Cbz = O=C(OCc1ccccc1)*
Key:
[1] = target: T1, TENC1 (Homo sapiens, UniProt Q63HR2, P1246L); assay: degradation of IRS-1 protein in myotube overexpressing TENC1, Western blotting; assay type: cell-based; design: expressed in transfected cells; host or cells: L6 myotube (adenoviral overexpression)
T1 sequence (Q63HR2 1-1409 P1246L): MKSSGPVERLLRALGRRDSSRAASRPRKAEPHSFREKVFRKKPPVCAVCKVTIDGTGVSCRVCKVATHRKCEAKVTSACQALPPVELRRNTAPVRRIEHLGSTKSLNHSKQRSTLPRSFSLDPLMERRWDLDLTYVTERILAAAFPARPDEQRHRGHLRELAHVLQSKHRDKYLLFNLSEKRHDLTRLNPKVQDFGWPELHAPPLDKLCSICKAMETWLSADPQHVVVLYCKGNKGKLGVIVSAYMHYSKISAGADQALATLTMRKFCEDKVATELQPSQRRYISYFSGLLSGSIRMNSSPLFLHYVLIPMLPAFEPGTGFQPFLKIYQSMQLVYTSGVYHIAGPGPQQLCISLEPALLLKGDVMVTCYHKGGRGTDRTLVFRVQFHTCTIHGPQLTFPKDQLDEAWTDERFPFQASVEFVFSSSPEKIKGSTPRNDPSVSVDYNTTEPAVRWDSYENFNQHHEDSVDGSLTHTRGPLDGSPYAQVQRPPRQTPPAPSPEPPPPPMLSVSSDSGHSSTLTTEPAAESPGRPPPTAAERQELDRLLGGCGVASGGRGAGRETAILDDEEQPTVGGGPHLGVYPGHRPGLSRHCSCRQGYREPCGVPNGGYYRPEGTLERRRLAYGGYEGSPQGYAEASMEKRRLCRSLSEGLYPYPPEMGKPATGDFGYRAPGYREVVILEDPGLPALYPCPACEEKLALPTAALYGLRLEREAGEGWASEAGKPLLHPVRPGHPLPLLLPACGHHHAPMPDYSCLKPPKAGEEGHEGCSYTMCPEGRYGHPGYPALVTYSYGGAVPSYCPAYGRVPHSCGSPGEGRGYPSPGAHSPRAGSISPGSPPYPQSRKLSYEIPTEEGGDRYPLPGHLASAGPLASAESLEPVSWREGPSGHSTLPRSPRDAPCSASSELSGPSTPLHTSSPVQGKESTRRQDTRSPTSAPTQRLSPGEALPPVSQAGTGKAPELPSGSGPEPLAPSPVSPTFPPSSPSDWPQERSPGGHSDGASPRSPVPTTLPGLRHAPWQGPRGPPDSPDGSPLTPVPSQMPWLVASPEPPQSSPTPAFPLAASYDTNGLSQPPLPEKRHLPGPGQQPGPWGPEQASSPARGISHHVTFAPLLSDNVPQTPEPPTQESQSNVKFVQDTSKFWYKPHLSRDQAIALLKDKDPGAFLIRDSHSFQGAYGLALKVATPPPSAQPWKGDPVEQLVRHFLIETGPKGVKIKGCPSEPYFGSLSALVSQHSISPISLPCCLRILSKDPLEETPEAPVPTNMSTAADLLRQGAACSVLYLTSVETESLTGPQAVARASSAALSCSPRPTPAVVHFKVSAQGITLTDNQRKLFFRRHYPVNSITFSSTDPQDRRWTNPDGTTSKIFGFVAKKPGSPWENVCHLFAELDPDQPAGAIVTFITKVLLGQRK
Description: In order to know a physiological function of TENC1, TENC1 was overexpressed in L6 myotube (muscle cell) that plays a main role in IRS-1, using an adenovirus. Using the same method as in Example 1, the quantitative PCR was performed and it was confirmed that TENC1 mRNA was increased eightfold to tenfold in the myotube. Then, using the same method as in Example 2, phosphorylation of proteins associated with IRS-1 was determined.
Accordingly, in order to determine the reason for the decrease of IRS-1, it was determined whether TENC1 influences a ubiquitin proteasome pathway or serine phosphorylation of IRS-1 by Western blotting. In order to determine whether TENC1 influences a protein-degrading mechanism, MG132, which is an inhibitor of a protein-degrading enzyme (proteasome), was treated.
In order to determine whether the PTPase activity of TENC1 influences degradation of IRS-1, vanadate was treated to determine whether degradation of IRS-1 is suppressed by Western blotting.

[2] = target: T1, TENC1; assay: PTPase activity of separated TENC1, malachite green assay; assay type: biochemical; design: expressed in transfected cells; conditions: separated TENC1 proteins, FIG. 16A
Description: In addition, in order to measure the PTPase activity of TENC1, first, TENC1 was separated from HEK293 cell lines using a Flag immunoprecipitation/Flag peptide elution system. Then, the PTPase activity of the separated TENC1 was measured over time, using peptides having phosphotyrosine. The PTPase activity was analyzed by a malachite green assay method. As a control group, PTEN (a phosphatase and tensin homolog) or the TENC1 CS variant was used.
As a result, it was confirmed that the PTPase activity of TENC1 was inhibited by 60% or more (FIG. 16A).

[3] = target: T2, PTPase domain of TENC1 (Homo sapiens, UniProt Q63HR2, P1246L); assay: binding of TENC1 and IRS-1, immunoprecipitation using IRS-1; conditions: FIG. 5
T2 construct: expressed in transfected cells
T2 sequence (Q63HR2 1-1409 P1246L): T1 sequence (Q63HR2 1-1409 P1246L)
Description: In order to determine a mechanism of TENC1 that suppresses phosphorylation of IRS-1, immunoprecipitation was performed using IRS-1. In a control experiment, vanadate, which is an analogue of phosphotyrosine and binds to a PTPase domain to inhibit the PTPase activity, was used.

SMILES: CC(C)C[C@@H](C=O)NC(=O)[C@H](CC(C)C)NC(=O)[C@H](CC(C)C)NC(=O)OCc1ccccc1 [MG132] (Cbz-Leu-Leu-Leu-aldehyde)
- amount of IRS-1 ([1]; with and without insulin, TENC1 overexpressed, FIG. 9): the decreased amount of IRS-1 was restored

- inhibition at 20 µM [2]: ≥ 60%
SMILES: C[C@H]1[C@H](C)CC[C@]2(C(=O)O)CC[C@]3(C)C(=CC[C@@H]4[C@@]5(C)CC[C@H](O)C(C)(C)[C@@H]5CC[C@]43C)[C@H]12 [ursolic acid]
- degree of degradation of IRS-1 protein ([1]; myotube overexpressing TENC1, increasing concentration, FIG. 16C): IRS-1 is restored to a level similar to a control group

SMILES: [O]=[V]([O-])([O-])[O-] [vanadate]
- degradation of IRS-1 ([1]; vanadate treated, Western blotting, FIG. 10): degradation of IRS-1 was suppressed
- binding of TENC1 WT with IRS-1 [3]: binding with IRS-1 decreased

— patent US9402856B2, “Pharmaceutical composition for preventing or treating diabetes containing TENC1 expression or activity suppressor” (POSTECH ACADEMY-INDUSTRY FOUNDATION, priority 2012, dated 2016)
